From ChEMBL document CHEMBL1122779, “Antiinflammatory agents. 3. Synthesis and pharmacological evaluation of 2-amino-3-benzoylphenylacetic acid and analogues” (J Med Chem, 1984) come the findings set out here.

The test system of data set [1] is Rattus norvegicus. Nature of the data set: Percent change in avg. volume of pleural fluid at a dose of 0.16 mg/kg and 5-h response is evaluated by Evans blue-carrageenan induced pleural effusion assay.
In a further data set the target is T1, Cyclooxygenase (Bos taurus, UniProt O62664+O62698).
T1 sequence (O62664 whole entry): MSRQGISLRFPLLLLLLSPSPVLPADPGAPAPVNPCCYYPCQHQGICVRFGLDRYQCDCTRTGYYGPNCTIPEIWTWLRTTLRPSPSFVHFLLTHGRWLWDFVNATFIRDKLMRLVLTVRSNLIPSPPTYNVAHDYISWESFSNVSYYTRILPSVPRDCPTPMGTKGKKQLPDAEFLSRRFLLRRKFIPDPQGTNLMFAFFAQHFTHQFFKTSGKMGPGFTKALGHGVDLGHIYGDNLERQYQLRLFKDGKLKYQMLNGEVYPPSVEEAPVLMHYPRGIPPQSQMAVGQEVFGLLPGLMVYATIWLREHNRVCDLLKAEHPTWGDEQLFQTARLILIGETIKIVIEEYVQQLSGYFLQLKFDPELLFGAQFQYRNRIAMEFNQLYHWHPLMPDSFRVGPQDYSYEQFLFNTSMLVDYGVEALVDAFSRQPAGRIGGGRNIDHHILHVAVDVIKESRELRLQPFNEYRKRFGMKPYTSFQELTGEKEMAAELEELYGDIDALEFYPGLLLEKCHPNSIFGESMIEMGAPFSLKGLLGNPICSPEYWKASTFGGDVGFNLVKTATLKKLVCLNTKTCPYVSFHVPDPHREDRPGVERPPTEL
T1 sequence (O62698 whole entry): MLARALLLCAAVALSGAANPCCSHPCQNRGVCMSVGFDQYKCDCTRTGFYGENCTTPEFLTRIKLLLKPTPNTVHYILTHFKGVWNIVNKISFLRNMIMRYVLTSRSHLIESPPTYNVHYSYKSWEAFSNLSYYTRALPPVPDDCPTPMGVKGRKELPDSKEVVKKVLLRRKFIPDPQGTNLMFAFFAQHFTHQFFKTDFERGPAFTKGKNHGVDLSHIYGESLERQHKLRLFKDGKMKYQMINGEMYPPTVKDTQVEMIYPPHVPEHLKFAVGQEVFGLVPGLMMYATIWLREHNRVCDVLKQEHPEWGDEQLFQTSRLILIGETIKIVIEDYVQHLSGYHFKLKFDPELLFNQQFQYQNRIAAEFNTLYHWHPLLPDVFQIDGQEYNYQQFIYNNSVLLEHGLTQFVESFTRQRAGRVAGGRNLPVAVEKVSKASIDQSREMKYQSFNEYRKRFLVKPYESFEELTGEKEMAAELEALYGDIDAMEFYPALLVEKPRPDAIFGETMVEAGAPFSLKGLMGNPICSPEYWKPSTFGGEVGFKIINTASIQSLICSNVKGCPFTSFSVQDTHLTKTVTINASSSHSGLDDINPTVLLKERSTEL

The test system of data set [2] is Mus musculus. Nature of the data set: Oral analgesic activity was determined in mice by the acetylcholine-induced abdominal constriction assay upon ip administration of acetylcholine bromide 5 hours following oral administration. It counts as functional. Conditions: Abdomen.
For data set [3], the system named is Rattus norvegicus. The experiment in a line: Evaluated for chronic intestinal toxicity (multiple oral dose) in rats. It is filed as organism-based. The following applies: in vivo.
The species named for data set [4] is Rattus norvegicus. Nature of the data set: Evaluated for acute potency in pleural effusion assay. It counts as functional.
For data set [5], the system named is Mus musculus. Nature of the data set: Oral analgesic activity was determined in mice by the acetylcholine-induced abdominal constriction assay upon ip administration of acetylcholine bromide 20 min following oral administration. It counts as functional. The following applies: Abdomen.
Data set [6] concerns Rattus norvegicus. The experiment in a line: Percent change in average volume of pleural fluid at a dose 4 mg/kg of indomethacin and 5-h response is evaluated by Evans blue-carrageenan induced pleural effusion assay. It is filed as functional.
For data set [7], the species on record is Rattus norvegicus. The experiment in a line: Evaluated for chronic potency in adjuvant arthritis assay. It counts as functional.
The subject of data set [8] is Rattus norvegicus. The experiment in a line: Acute gastric toxicity (single oral dose) in male fasted rats. Conditions: in vivo. It counts as organism-based, Stomach.
Data set [9] can be described thus: Acute therapeutic index as ratio of potency in pleural effusion to that of potency in gastric toxicity assay. Conditions: Stomach; read-out: Acute TI. It counts as tissue-based.
In data set [10] the test system is Rattus norvegicus. The experiment in a line: Percent change in average volume of pleural fluid at a dose of 4.0 mg/kg and 5-h response by Evans blue-carrageenan induced pleural effusion assay. It is filed as functional.
Data set [11] is described as follows: Chronic therapeutic index as ratio of potency in adjuvant-induced arthritis assay to that of potency in intestinal toxicity assay. Conditions: read-out: Chronic TI.
The subject of data set [12] is Rattus norvegicus. Nature of the data set: Percent change in avg. volume of pleural fluid at a dose of 4.0 mg/kg and 5-h response is evaluated by Evans blue-carrageenan induced pleural effusion assay. It is filed as functional.
Data set [13] concerns Rattus norvegicus. Nature of the data set: Percent change in average volume of pleural fluid at a dose of 100 mg/kg and 5-h response by Evans blue-carrageenan induced pleural effusion assay. It is filed as functional.
In data set [14] the test system is Rattus norvegicus. The experiment in a line: Percent change in avg. volume of pleural fluid at a dose 4 mg/kg of indomethacin and 5-h response is evaluated by Evans blue-carrageenan induced pleural effusion assay. It is filed as functional.

Description for Cyclooxygenase: Inhibition of prostaglandin G/H synthase obtained from bovine seminal vesicles.

With `Nc1c(CC(=O)[O-])cccc1C(=O)c1ccc(Br)cc1.Nc1c(CC(=O)[O-])cccc1C(=O)c1ccc(Br)cc1.O.O.O.[Na+].[Na+]` [BROMFENAC SODIUM], the Change is on record as -27% in the data set with Rattus norvegicus [1], -41% in the data set on Rattus norvegicus [6] and -43% in the data set on Rattus norvegicus [10]. At Cyclooxygenase, the IC50 – broadly, the point on the concentration scale where inhibition reaches its midpoint – was determined as 0.08 µM. The ED50 (in general, the dose at which the effect has come halfway, by size or by number of responders) in the data set on Mus musculus [2] amounted to 0.13 mg/kg; in the data set on Mus musculus [5] it was 0.07 mg/kg. The molecule also came in with an Intestinal toxicity in the data set with Rattus norvegicus [3] of 1.8. Moreover, the Potency in the data set filed under Rattus norvegicus [4] is 7.5; in the data set filed under Rattus norvegicus [7], 5.8. In the data set on Rattus norvegicus [8], this molecule came in with a Gastric toxicity of 1.4. Also, the selectivity ratio in [9] turned out to be 5.4; in data set [11], 3.2.

Consider `Nc1ccc(C(=O)c2ccccc2)cc1CC(=O)O`, for which the Change in the data set with Rattus norvegicus [6] is reported as -43%; with Rattus norvegicus [12], 11%.

In the case of `Nc1c(CC(=O)[O-])cccc1C(=O)c1ccc(I)cc1.[Na+]`, the Change in the data set with Rattus norvegicus [1] is listed as -17%; in the data set with Rattus norvegicus [6], -32%; with Rattus norvegicus [13] it was -44%; in the data set with Rattus norvegicus [10], -31%. Moreover, at Cyclooxygenase, the half-maximal inhibitory concentration (IC50) came to 0.07 µM. For the same molecule, the ED50 was 0.18 mg/kg in the data set on Mus musculus [2] and 0.13 mg/kg in the data set on Mus musculus [5]. Further, the Intestinal toxicity in the data set with Rattus norvegicus [3] is listed as 3.3. Moreover, the values for the Potency in the data set filed under Rattus norvegicus [4] and in the data set filed under Rattus norvegicus [7] were 6.9 and 8.1, respectively. The molecule further yielded a Gastric toxicity with Rattus norvegicus [8] of 5.3. The selectivity ratio in data set [9] turned out to be 1.3; in [11], 2.5.

As for `Nc1cccc(C(=O)c2ccccc2)c1CC(=O)[O-].[Na+]`, the Change is reported as -35% with Rattus norvegicus [14] and -2% with Rattus norvegicus [10].

With `Nc1c(CC(=O)[O-])cccc1C(=O)c1ccc(Cl)cc1.[Na+]`, the Change in the data set with Rattus norvegicus [1] is listed as -16%; in the data set with Rattus norvegicus [6] it was -33%; in the data set on Rattus norvegicus [13] it was -38%; in the data set on Rattus norvegicus [10] it was -29%. On Cyclooxygenase, this molecule had an IC50 of 0.3 µM. Also, the results for the ED50 with Mus musculus [2] and in the data set with Mus musculus [5] were 0.93 mg/kg and 0.1 mg/kg, respectively. Besides, the Intestinal toxicity in the data set with Rattus norvegicus [3] was determined as 1.4. For the same molecule, the Potency in the data set filed under Rattus norvegicus [4] amounted to 3.8; in the data set listed under Rattus norvegicus [7], 2.2. The Gastric toxicity in the data set on Rattus norvegicus [8] came out at 0.9. The selectivity ratio in [9] was 4.3; in data set [11], 1.6.

In turn, `COc1cc(CC(=O)[O-])c(N)c(C(=O)c2ccccc2)c1.[Na+]` had an IC50 against Cyclooxygenase of 5.4 µM. In addition, the Change in the data set with Rattus norvegicus [14] is -48%; with Rattus norvegicus [10] it was -18%.

Consider `Nc1cc(C(=O)c2ccccc2)ccc1CC(=O)[O-].[Na+]`, for which the results for the Change with Rattus norvegicus [12] and in the data set with Rattus norvegicus [13] were -31% and -2%, respectively.

With `Nc1ccc(CC(=O)O)cc1C(=O)c1ccccc1`, the Change with Rattus norvegicus [14] is -31%; in the data set on Rattus norvegicus [10] it was -4%.

For the molecule `Nc1c(CC(=O)[O-])cc(Cl)cc1C(=O)c1ccc(Cl)cc1.[Na+]`, the Change is given as -18% in the data set with Rattus norvegicus [1], -32% in the data set with Rattus norvegicus [6] and -41% in the data set on Rattus norvegicus [10]. In addition, the IC50 against Cyclooxygenase stood at 0.3 µM. In addition, the 50% effective dose (ED50) came out at 0.31 mg/kg in the data set on Mus musculus [2] and 0.23 mg/kg with Mus musculus [5]. In the data set with Rattus norvegicus [3], this molecule registered an Intestinal toxicity of 1.2. Moreover, the figures for the Potency in the data set listed under Rattus norvegicus [4] and in the data set filed under Rattus norvegicus [7] were 4.6 and 1.7, respectively. This molecule also came in with a Gastric toxicity in the data set with Rattus norvegicus [8] of 1.2. The selectivity ratio was determined as 3.8 in data set [9] and 1.4 in data set [11].
